# From ChEMBL document CHEMBL2412968, “Tetrazole-based deoxyamodiaquines: synthesis, ADME/PK profiling and pharmacological evaluation as potential antimalarial agents” (Bioorg Med Chem, 2013)
# Target: Cytochrome P450 2C9 (Homo sapiens, UniProt P11712)
# Test: Inhibition of CYP2C9 in human liver microsomes assessed as diclofenac 4'-hydroxylation after 20 mins by LCMS analysis
# Assay type: ADME, Microsome
# Settings: not given; call rule not given here
# Sequence of Cytochrome P450 2C9 (P11712 whole entry): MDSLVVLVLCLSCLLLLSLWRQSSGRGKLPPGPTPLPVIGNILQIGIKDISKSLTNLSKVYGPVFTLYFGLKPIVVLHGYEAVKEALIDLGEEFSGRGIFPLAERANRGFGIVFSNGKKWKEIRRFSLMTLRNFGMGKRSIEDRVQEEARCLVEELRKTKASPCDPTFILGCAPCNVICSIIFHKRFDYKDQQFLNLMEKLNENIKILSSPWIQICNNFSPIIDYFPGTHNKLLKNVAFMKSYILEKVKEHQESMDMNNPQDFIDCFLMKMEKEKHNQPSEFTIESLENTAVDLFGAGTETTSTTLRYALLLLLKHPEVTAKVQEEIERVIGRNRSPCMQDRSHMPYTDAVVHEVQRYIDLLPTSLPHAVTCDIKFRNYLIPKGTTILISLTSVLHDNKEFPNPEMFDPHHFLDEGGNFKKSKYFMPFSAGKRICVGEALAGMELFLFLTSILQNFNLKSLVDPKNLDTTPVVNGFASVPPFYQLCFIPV
row,SMILES,IC50
1,CC(C)(C)n1nnnc1C(c1cccc(Nc2ccnc3cc(Cl)ccc23)c1)N1CCCC1 (stereo unspecified),3.14 µM

# Target: T1, Cytochrome P450 2C8 (Homo sapiens, UniProt P10632)
# T1 sequence (P10632 whole entry): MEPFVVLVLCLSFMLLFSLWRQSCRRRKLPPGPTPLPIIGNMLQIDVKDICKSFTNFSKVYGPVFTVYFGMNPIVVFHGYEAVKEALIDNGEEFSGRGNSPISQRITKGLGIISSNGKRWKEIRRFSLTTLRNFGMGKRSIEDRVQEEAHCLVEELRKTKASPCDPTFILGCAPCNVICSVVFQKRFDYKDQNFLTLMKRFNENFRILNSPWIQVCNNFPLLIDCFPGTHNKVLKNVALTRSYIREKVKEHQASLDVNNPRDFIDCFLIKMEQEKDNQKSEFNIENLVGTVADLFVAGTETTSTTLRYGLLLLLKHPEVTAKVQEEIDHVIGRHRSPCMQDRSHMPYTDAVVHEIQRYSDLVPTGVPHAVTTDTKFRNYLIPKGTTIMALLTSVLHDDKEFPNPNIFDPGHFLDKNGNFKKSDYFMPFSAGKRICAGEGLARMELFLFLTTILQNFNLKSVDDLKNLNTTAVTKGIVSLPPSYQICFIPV
# Test: Inhibition of CYP2C8 in human liver microsomes assessed as paclitaxel 6alpha-hydroxylation after 20 mins by LC-MS analysis
# Assay type: ADME, Microsome
# Settings: not given
row,SMILES,IC50
1,CC(C)(C)n1nnnc1C(c1cccc(Nc2ccnc3cc(Cl)ccc23)c1)N1CCCC1 (stereo unspecified),0.12 µM

# Target: T2, Cytochrome P450 1A2 (Homo sapiens, UniProt P05177)
# T2 sequence (P05177 whole entry): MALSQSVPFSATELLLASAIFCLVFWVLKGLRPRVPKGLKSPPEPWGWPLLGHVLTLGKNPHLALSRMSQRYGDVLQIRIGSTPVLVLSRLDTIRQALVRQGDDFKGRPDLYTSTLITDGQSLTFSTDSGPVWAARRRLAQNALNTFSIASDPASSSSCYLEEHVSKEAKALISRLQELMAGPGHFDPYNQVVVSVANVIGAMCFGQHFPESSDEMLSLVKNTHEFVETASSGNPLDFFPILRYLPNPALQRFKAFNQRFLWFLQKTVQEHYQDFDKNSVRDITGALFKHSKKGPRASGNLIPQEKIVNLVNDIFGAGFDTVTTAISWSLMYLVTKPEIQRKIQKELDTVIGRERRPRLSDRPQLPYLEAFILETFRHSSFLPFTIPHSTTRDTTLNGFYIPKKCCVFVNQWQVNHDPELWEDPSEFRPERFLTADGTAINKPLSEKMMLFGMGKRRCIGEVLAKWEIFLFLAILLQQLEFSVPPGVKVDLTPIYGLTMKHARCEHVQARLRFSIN
# Test: Inhibition of CYP1A2 in human liver microsomes assessed as phenacetin O-deethylation after 20 mins by LC-MS analysis
# Assay type: ADME, Microsome
# Settings: not given
row,SMILES,IC50
1,CC(C)(C)n1nnnc1C(c1cccc(Nc2ccnc3cc(Cl)ccc23)c1)N1CCCC1 (stereo unspecified),2.54 µM

# System: Hepatocyte
# Test: Metabolic stability in human hepatocytes assessed as level of GSH adduct at 5 uM after 1 hr
# Assay type: ADME, cell-based
# Settings: not given
row,SMILES,Stability
1,CC(C)(C)n1nnnc1C(c1cccc(Nc2ccnc3cc(Cl)ccc23)c1)N1CCCC1 (stereo unspecified),Stable

# System: Hepatocyte
# Test: Metabolic stability in rat hepatocytes assessed as level of GSH adduct at 5 uM after 1 hr
# Assay type: ADME, cell-based
# Settings: not given
row,SMILES,Stability
1,CC(C)(C)n1nnnc1C(c1cccc(Nc2ccnc3cc(Cl)ccc23)c1)N1CCCC1 (stereo unspecified),Stable

# System: Liver microsomes
# Test: Metabolic stability in human liver microsomes assessed as level of GSH adduct at 5 uM after 1 hr
# Assay type: ADME, Microsome
# Settings: not given
row,SMILES,Stability
1,CC(C)(C)n1nnnc1C(c1cccc(Nc2ccnc3cc(Cl)ccc23)c1)N1CCCC1 (stereo unspecified),Stable

# System: Liver microsomes
# Test: Metabolic stability in rat liver microsomes assessed as level of GSH adduct at 5 uM after 1 hr
# Assay type: ADME, Microsome
# Settings: not given
row,SMILES,Stability
1,CC(C)(C)n1nnnc1C(c1cccc(Nc2ccnc3cc(Cl)ccc23)c1)N1CCCC1 (stereo unspecified),Stable

# System: Hepatocyte
# Test: Drug metabolism in rat hepatocytes assessed as formation of oxidation product at 5 uM after 1 hr
# Assay type: ADME, cell-based
# Settings: not given
row,SMILES,Drug metabolism
1,CC(C)(C)n1nnnc1C(c1cccc(Nc2ccnc3cc(Cl)ccc23)c1)N1CCCC1 (stereo unspecified),Active

# System: Liver microsomes
# Test: Drug metabolism in rat liver microsomes assessed as formation of N-dealkylation product at 5 uM after 1 hr
# Assay type: ADME, Microsome
# Settings: not given
row,SMILES,Drug metabolism
1,CC(C)(C)n1nnnc1C(c1cccc(Nc2ccnc3cc(Cl)ccc23)c1)N1CCCC1 (stereo unspecified),Active

# System: Liver microsomes
# Test: Metabolic stability of the compound in rat liver microsomes at 1 uM after 40 mins
# Assay type: ADME, Microsome
# Settings: not given
row,SMILES,Stability
1,CC(C)(C)n1nnnc1C(c1cccc(Nc2ccnc3cc(Cl)ccc23)c1)N1CCCC1 (stereo unspecified),Unstable

# System: Liver microsomes
# Test: Metabolic stability of the compound in human liver microsomes at 1 uM after 40 mins
# Assay type: ADME, Microsome
# Settings: not given
row,SMILES,Stability
1,CC(C)(C)n1nnnc1C(c1cccc(Nc2ccnc3cc(Cl)ccc23)c1)N1CCCC1 (stereo unspecified),Unstable

# System: Plasmodium falciparum
# Test: Antiplasmodial activity chloroquine-resistant Plasmodium falciparum W2 using YOYO-1 staining after 48 hrs by FACS analysis
# Assay type: functional, organism-based
# Settings: W2, 48 h
row,SMILES,IC50
1,CC(C)(C)n1nnnc1C(c1cccc(Nc2ccnc3cc(Cl)ccc23)c1)N1CCCC1 (stereo unspecified),0.077 µM

# System: Plasmodium falciparum
# Test: Antiplasmodial activity chloroquine-resistant Plasmodium falciparum K1 infected in human A+ erythrocytes assessed as reduction of [3H]hypoxanthine incorporation after 24 hrs by scintillation counting
# Assay type: functional, organism-based
# Settings: not given
row,SMILES,IC50
1,CC(C)(C)n1nnnc1C(c1cccc(Nc2ccnc3cc(Cl)ccc23)c1)N1CCCC1 (stereo unspecified),0.0096 µM

# System: Plasmodium falciparum
# Test: Antiplasmodial activity chloroquine-sensitive Plasmodium falciparum 3D7 infected in human A+ erythrocytes assessed as reduction of [3H]hypoxanthine incorporation after 24 hrs by scintillation counting
# Assay type: functional, organism-based
# Settings: not given
row,SMILES,IC50
1,CC(C)(C)n1nnnc1C(c1cccc(Nc2ccnc3cc(Cl)ccc23)c1)N1CCCC1 (stereo unspecified),0.01 µM

# System: not listed separately
# Test: physchem
# Settings: phosphate buffered saline, pH 7.4
row,SMILES,solubility kinetic at 2 h
1,CC(C)(C)n1nnnc1C(c1cccc(Nc2ccnc3cc(Cl)ccc23)c1)N1CCCC1 (stereo unspecified),< 5 µM

# System: not listed separately
# Test: physchem
# Settings: 0.01 M HCl, pH 2
row,SMILES,solubility kinetic at 2 h
1,CC(C)(C)n1nnnc1C(c1cccc(Nc2ccnc3cc(Cl)ccc23)c1)N1CCCC1 (stereo unspecified),> 200 µM
